Results reported in the NIST ThermoML archive (doi:10.1021/je700321s).

Experiment: xn = mol fraction of the nth substance listed
Details: Liquid, Vibrating tube method

CC(C)O [propan-2-ol] + O=C=O
Details | mass density [kg/m3]
333.02 K, 8305 kPa, x2 = 0.6086 | 754.3
333.02 K, 8394 kPa, x2 = 0.4248 | 773.2
333.02 K, 8400 kPa, x2 = 0.6086 | 754.8
333.02 K, 8504 kPa, x2 = 0.6086 | 755.5
333.02 K, 8610 kPa, x2 = 0.6086 | 756
333.02 K, 8701 kPa, x2 = 0.6086 | 756.6
333.02 K, 8802 kPa, x2 = 0.4248 | 774.1
333.02 K, 8802 kPa, x2 = 0.6086 | 757.3
333.02 K, 8900 kPa, x2 = 0.6086 | 757.9
333.02 K, 8916 kPa, x2 = 0.4248 | 774.5
333.02 K, 9000 kPa, x2 = 0.4248 | 774.7
333.02 K, 9005 kPa, x2 = 0.6086 | 758.5
333.02 K, 9100 kPa, x2 = 0.4248 | 775
333.02 K, 9103 kPa, x2 = 0.6086 | 759
333.02 K, 9205 kPa, x2 = 0.4248 | 775.3
333.02 K, 9304 kPa, x2 = 0.4248 | 775.6
333.02 K, 9410 kPa, x2 = 0.4248 | 775.8
333.02 K, 9506 kPa, x2 = 0.4248 | 776.1
333.02 K, 9607 kPa, x2 = 0.4248 | 776.4
333.02 K, 9809 kPa, x2 = 0.4248 | 776.8
333.05 K, 4210 kPa, x2 = 0.2003 | 763.4
333.05 K, 4492 kPa, x2 = 0.2003 | 763.8
333.05 K, 4799 kPa, x2 = 0.2003 | 764.3
333.05 K, 5001 kPa, x2 = 0.2003 | 764.6
333.05 K, 5470 kPa, x2 = 0.2003 | 765.3
333.05 K, 5996 kPa, x2 = 0.2003 | 766.1
333.05 K, 6511 kPa, x2 = 0.2003 | 766.9
333.05 K, 7008 kPa, x2 = 0.2003 | 767.7
333.05 K, 7519 kPa, x2 = 0.2003 | 768.4
333.05 K, 8008 kPa, x2 = 0.2003 | 769.2
333.05 K, 8503 kPa, x2 = 0.2003 | 769.9
333.05 K, 9019 kPa, x2 = 0.2003 | 770.6
333.05 K, 9506 kPa, x2 = 0.2003 | 771.3
333.05 K, 9994 kPa, x2 = 0.2003 | 772.1
347.93 K, 7801 kPa, x2 = 0.4248 | 744.8
347.93 K, 7908 kPa, x2 = 0.4248 | 745.1
347.93 K, 7999 kPa, x2 = 0.4248 | 745.5
347.93 K, 8130 kPa, x2 = 0.4248 | 745.9
347.93 K, 8239 kPa, x2 = 0.4248 | 746.2
347.93 K, 8408 kPa, x2 = 0.4248 | 746.8
347.93 K, 8501 kPa, x2 = 0.4248 | 747.2
347.93 K, 8600 kPa, x2 = 0.4248 | 747.4
347.93 K, 8712 kPa, x2 = 0.4248 | 747.8
347.93 K, 8801 kPa, x2 = 0.4248 | 748.2
347.93 K, 8890 kPa, x2 = 0.4248 | 748.4
347.93 K, 9033 kPa, x2 = 0.4248 | 748.8
347.93 K, 9105 kPa, x2 = 0.4248 | 749.1
347.93 K, 9244 kPa, x2 = 0.4248 | 749.4
347.93 K, 9410 kPa, x2 = 0.4248 | 750
347.93 K, 9501 kPa, x2 = 0.4248 | 750.2
347.93 K, 9608 kPa, x2 = 0.4248 | 750.7
347.94 K, 9809 kPa, x2 = 0.6086 | 716
347.94 K, 9815 kPa, x2 = 0.6086 | 717
347.94 K, 9822 kPa, x2 = 0.6086 | 718.1
347.94 K, 9831 kPa, x2 = 0.6086 | 719.1
347.94 K, 9840 kPa, x2 = 0.6086 | 719.7
347.94 K, 9850 kPa, x2 = 0.6086 | 720
347.94 K, 9861 kPa, x2 = 0.6086 | 720
347.94 K, 9873 kPa, x2 = 0.6086 | 720.2
347.94 K, 9885 kPa, x2 = 0.6086 | 720.2
347.94 K, 9897 kPa, x2 = 0.6086 | 720.3
347.94 K, 9910 kPa, x2 = 0.6086 | 720.4
347.94 K, 9949 kPa, x2 = 0.6086 | 720.8
347.94 K, 10004 kPa, x2 = 0.6086 | 721.1
347.94 K, 10052 kPa, x2 = 0.6086 | 721.5
347.94 K, 10104 kPa, x2 = 0.6086 | 721.9
347.94 K, 10152 kPa, x2 = 0.6086 | 722.2
347.95 K, 3317 kPa, x2 = 0.139 | 742.5
347.95 K, 3516 kPa, x2 = 0.139 | 742.7
347.95 K, 4002 kPa, x2 = 0.139 | 743.5
347.95 K, 4464 kPa, x2 = 0.139 | 744.3
347.95 K, 5008 kPa, x2 = 0.139 | 745.1
347.95 K, 5502 kPa, x2 = 0.139 | 745.9
347.95 K, 6011 kPa, x2 = 0.139 | 746.7
347.95 K, 6501 kPa, x2 = 0.139 | 747.5
347.95 K, 7037 kPa, x2 = 0.139 | 748.3
347.95 K, 7523 kPa, x2 = 0.139 | 749.1
347.95 K, 8023 kPa, x2 = 0.139 | 749.8
347.95 K, 8497 kPa, x2 = 0.139 | 750.5
347.95 K, 8993 kPa, x2 = 0.139 | 751.3
347.95 K, 9568 kPa, x2 = 0.139 | 752.1
347.95 K, 10032 kPa, x2 = 0.139 | 752.8
347.95 K, 11400 kPa, x2 = 0.7943 | 647.2
347.95 K, 11604 kPa, x2 = 0.7943 | 653.3
347.95 K, 11812 kPa, x2 = 0.7943 | 658.7
347.95 K, 12007 kPa, x2 = 0.7943 | 663
347.95 K, 12201 kPa, x2 = 0.7943 | 666.8
347.95 K, 12502 kPa, x2 = 0.7943 | 672.6
347.95 K, 12802 kPa, x2 = 0.7943 | 677.6
347.95 K, 13202 kPa, x2 = 0.7943 | 684
347.95 K, 13504 kPa, x2 = 0.7943 | 688.5
347.95 K, 13802 kPa, x2 = 0.7943 | 692.8
347.95 K, 14109 kPa, x2 = 0.7943 | 696.9
347.95 K, 14406 kPa, x2 = 0.7943 | 700.5
347.95 K, 14703 kPa, x2 = 0.7943 | 703.9
347.95 K, 15000 kPa, x2 = 0.7943 | 707.4
347.95 K, 15207 kPa, x2 = 0.7943 | 709.6
347.95 K, 15407 kPa, x2 = 0.7943 | 711.9
347.95 K, 15610 kPa, x2 = 0.7943 | 714
347.95 K, 15813 kPa, x2 = 0.7943 | 716.1
347.95 K, 16004 kPa, x2 = 0.7943 | 717.9
347.95 K, 16303 kPa, x2 = 0.7943 | 720.7
347.95 K, 16501 kPa, x2 = 0.7943 | 722.4
347.95 K, 16808 kPa, x2 = 0.7943 | 725
347.96 K, 10989 kPa, x2 = 0.9492 | 348.5
347.96 K, 11505 kPa, x2 = 0.9492 | 382.4
347.96 K, 12004 kPa, x2 = 0.9492 | 415.7
347.96 K, 12507 kPa, x2 = 0.9492 | 448.4
347.96 K, 13000 kPa, x2 = 0.9492 | 477.1
347.96 K, 13503 kPa, x2 = 0.9492 | 503
347.96 K, 14006 kPa, x2 = 0.9492 | 527.8
347.96 K, 14511 kPa, x2 = 0.9492 | 550.1
347.96 K, 15011 kPa, x2 = 0.9492 | 569.6
347.96 K, 15495 kPa, x2 = 0.9492 | 586.6
347.96 K, 15997 kPa, x2 = 0.9492 | 602.4
347.96 K, 16514 kPa, x2 = 0.9492 | 617
347.96 K, 17014 kPa, x2 = 0.9492 | 629.5
347.96 K, 17513 kPa, x2 = 0.9492 | 640.4
347.96 K, 17988 kPa, x2 = 0.9492 | 648.6
347.97 K, 5098 kPa, x2 = 0.2003 | 745.6
347.97 K, 5302 kPa, x2 = 0.2003 | 746.1
347.97 K, 5533 kPa, x2 = 0.2003 | 746.5
347.97 K, 6025 kPa, x2 = 0.2003 | 747.4
347.97 K, 6609 kPa, x2 = 0.2003 | 748.4
347.97 K, 7005 kPa, x2 = 0.2003 | 749.2
347.97 K, 7508 kPa, x2 = 0.2003 | 750.1
347.97 K, 8010 kPa, x2 = 0.2003 | 751
347.97 K, 8501 kPa, x2 = 0.2003 | 751.7
347.97 K, 8915 kPa, x2 = 0.2003 | 752.4
347.97 K, 9581 kPa, x2 = 0.2003 | 753.5
347.97 K, 9706 kPa, x2 = 0.2003 | 753.7
347.97 K, 10014 kPa, x2 = 0.2003 | 754.2
